Results reported in article PMC4853476 (Nature Communications, 2016).
Like-named read-outs stand apart in the source and are kept apart here.

What was measured:
PRC2 [1] = conditions: repressive peptides; cited from earlier work
[2] = biological target: human PRC2 core complex (EZH2^N 1-385 lacking 183-210, EZH2^C 421-746, EED 77-441, SUZ12 535-685) (human) (UniProt Q15910); assay: fluorescence polarisation; anisotropy displacement titration: unlabelled peptide added to FAM-H3K27M (0.4 μM) and PRC2 ([…]) with SAM (320 μM); 20 °C; 25 mM Hepes pH 7.25, 25 mM NaCl, 1 mM TCEP, 0.01% Brij-35
human PRC2 complex = human PRC2 complex (Homo sapiens, UniProt O75530+Q15022+Q15910, DEL183-210)
Method: All anisotropy titrations were performed at 20 °C using a Jasco FP-8500 fluorimeter.
affinity of PRC2 for H3 peptide.
(a) Direct titration of PRC2 into FAM-K27M (0.4 μM) in the presence
absence of co-factor (white circles).
(320 μM) with unlabelled peptides.
titration of PRC2 into FAM-
The titration in the absence of repressive

PRC2 [3] = conditions: kinetic studies, cited from earlier work
From the text: In their recent analysis, Brown et al.[19] quantified the inhibitory affect of a series of peptide constructs varying in the side chain (both natural and synthetic) at position 27.

human PRC2 complex, sequence (Q15910 421-746 limits assumed, stated change not applied): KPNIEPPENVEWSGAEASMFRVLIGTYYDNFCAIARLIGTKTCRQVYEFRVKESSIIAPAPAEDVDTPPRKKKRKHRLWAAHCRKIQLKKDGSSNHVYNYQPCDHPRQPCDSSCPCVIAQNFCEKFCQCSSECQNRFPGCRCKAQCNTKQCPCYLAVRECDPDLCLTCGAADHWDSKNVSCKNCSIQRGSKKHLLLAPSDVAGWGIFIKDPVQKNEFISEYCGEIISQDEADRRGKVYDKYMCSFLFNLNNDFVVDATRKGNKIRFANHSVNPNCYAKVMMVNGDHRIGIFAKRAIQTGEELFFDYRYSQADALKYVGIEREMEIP
human PRC2 complex, sequence (Q15910 with tags, fused parts or gaps DEL183-210 limits assumed): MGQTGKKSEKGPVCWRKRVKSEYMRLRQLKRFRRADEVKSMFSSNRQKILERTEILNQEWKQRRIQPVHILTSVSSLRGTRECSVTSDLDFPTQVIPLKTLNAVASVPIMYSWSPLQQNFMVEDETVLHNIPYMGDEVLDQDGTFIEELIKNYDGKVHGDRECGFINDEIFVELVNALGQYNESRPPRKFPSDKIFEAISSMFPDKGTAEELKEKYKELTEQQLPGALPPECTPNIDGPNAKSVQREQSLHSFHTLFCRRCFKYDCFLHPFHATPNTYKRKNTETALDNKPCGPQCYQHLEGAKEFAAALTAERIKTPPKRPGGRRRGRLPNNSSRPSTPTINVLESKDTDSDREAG
human PRC2 complex, sequence (O75530 77-441 partner limits assumed): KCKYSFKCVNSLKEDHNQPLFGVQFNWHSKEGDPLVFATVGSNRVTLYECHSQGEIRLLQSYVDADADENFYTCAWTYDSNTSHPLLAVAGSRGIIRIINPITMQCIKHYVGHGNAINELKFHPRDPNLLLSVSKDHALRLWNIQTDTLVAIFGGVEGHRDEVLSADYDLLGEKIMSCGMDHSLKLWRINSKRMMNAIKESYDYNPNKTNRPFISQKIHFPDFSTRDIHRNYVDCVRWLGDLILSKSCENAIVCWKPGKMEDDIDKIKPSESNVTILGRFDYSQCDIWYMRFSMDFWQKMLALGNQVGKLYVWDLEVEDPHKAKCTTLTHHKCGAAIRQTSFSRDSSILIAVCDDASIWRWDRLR
human PRC2 complex, sequence (Q15022 535-685 partner limits assumed): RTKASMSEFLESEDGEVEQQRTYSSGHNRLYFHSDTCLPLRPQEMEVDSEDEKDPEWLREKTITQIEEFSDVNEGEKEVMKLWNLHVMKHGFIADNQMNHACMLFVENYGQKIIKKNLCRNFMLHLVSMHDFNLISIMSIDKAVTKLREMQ
human PRC2 core complex (EZH2^N 1-385 lacking 183-210, EZH2^C 421-746, EED 77-441, SUZ12 535-685) (human), sequence (Q15910 other isoform, or with tags, fused parts or gaps, chain 1 of 4): as the sequence (Q15910 with tags, fused parts or gaps DEL183-210 limits assumed) above
human PRC2 core complex (EZH2^N 1-385 lacking 183-210, EZH2^C 421-746, EED 77-441, SUZ12 535-685) (human), sequence (Q15910 421-746, chain 2 of 4): as the sequence (Q15910 421-746 limits assumed, stated change not applied) above
human PRC2 core complex (EZH2^N 1-385 lacking 183-210, EZH2^C 421-746, EED 77-441, SUZ12 535-685) (human), sequence (O75530 77-441, chain 3 of 4, further chain): as the sequence (O75530 77-441 partner limits assumed) above
human PRC2 core complex (EZH2^N 1-385 lacking 183-210, EZH2^C 421-746, EED 77-441, SUZ12 535-685) (human), sequence (Q15022 535-685, chain 4 of 4, further chain): as the sequence (Q15022 535-685 partner limits assumed) above

Question: Which “activation of PRC2” value (PRC2 [1]) does the source give for “Jarid2 K116me3: trimethylated K116 Jarid2 peptide (residues 111–121), binds EED and activates PRC2” here?
Answer: The value was “strongest activation of PRC2”.

Question: Which Kd [2] does the source give for unlabelled H3R26AK27M peptide here?
Answer: Its Kd is 73 µM.

Question: For `C[S+](CC[C@H](N)C(=O)[O-])C[C@H]1O[C@@H](n2cnc3c(N)ncnc32)[C@H](O)[C@@H]1O` (stereo partly drawn) [SAM, S-adenosylmethionine], which Kd (human PRC2 complex) is on record?
Answer: Its Kd is 47 ± 9 µM.

Question: With `Nc1ncnc2c1ncn2[C@@H]1O[C@H](CSCC[C@H](N)C(=O)O)[C@@H](O)[C@H]1O` [SAH] as the compound, how does the “binding of cofactor product” value (human PRC2 complex; relative to SAM) read?
Answer: Its value is “binds much weaker”.

Question: What does the source list for Norleucine?
Answer: relative inhibition of PRC2 by residue at position 27 (words) (PRC2 [3]): even better inhibitor than methionine; relative inhibition of PRC2 by residue at position 27 (words) (PRC2 [3]; listed as norleucine): strong inhibition
